Blank lines part the entries; values can stand above or below the compound they belong to.
Columns and labels:
rat P2X7 = target: T1, rat P2X7 (Rattus norvegicus, UniProt Q64663); assay: Ca2+ flux (FLIPR) in 1321N1 cells expressing recombinant rat P2X7 channel; conditions: FLIPR (rat) IC50 (μM), 250 μM BzATP
T1 sequence (Q64663 1-595): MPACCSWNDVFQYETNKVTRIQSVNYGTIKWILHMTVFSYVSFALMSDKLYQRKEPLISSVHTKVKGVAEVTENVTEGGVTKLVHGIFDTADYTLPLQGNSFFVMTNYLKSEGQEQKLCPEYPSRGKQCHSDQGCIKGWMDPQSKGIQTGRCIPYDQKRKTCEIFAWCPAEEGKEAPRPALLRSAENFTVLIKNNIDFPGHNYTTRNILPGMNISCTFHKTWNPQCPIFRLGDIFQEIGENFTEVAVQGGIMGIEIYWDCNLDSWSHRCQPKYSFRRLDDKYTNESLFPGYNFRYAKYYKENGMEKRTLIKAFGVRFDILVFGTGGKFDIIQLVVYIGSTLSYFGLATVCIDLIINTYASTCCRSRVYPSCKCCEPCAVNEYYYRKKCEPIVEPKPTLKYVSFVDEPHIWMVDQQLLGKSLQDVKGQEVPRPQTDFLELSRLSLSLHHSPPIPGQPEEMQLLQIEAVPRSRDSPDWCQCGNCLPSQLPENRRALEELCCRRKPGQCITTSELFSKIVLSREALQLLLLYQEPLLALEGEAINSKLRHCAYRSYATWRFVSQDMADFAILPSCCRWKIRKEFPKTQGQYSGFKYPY

P2X7 = target: T2, P2X7 (Homo sapiens, UniProt Q99572); assay: Ca2+ flux (FLIPR) in 1321N1 cells expressing recombinant human P2X7 channel; assay type: cell-based; parameters: expressed in transfected cells; host or cells: 1321N1 cells; conditions: 250 μM BzATP
T2 sequence (Q99572 1-595): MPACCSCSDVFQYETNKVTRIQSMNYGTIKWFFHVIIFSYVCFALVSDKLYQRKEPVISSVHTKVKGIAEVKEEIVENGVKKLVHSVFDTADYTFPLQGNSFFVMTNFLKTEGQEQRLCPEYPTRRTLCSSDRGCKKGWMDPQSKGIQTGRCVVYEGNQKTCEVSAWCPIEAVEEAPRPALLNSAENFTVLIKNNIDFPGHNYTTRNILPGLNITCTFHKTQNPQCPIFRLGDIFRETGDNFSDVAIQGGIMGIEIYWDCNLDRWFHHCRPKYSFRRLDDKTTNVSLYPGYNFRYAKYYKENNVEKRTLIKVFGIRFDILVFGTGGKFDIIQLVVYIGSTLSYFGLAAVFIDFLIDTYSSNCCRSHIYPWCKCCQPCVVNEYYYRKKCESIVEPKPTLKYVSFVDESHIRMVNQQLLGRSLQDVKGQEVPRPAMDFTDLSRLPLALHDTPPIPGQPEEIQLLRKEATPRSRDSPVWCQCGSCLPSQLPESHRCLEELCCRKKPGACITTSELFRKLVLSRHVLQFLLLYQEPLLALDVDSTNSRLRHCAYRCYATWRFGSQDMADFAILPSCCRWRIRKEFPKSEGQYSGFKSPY
Method: P2X7 Antagonism in Recombinant Human P2X7 Cells or Recombinant Rat P2X7 Cells: (a) Ca^2+ Flux and (b) Radioligand Binding
(a) Ca^2+ flux: 1321N1 cells expressing the recombinant human or rat P2X7 channel was cultured in HyQ DME/(HyClone/Dulbecco's Modified Eagle Medium) high glucose supplemented with 10% Fetal Bovine Serum (FBS) and appropriate selection marker. Cells were seeded at a density of 25000 cells/well (96-well clear bottom black walled plates) in 100 μl volume/well. On the day of the experiment, cell plates were washed with assay buffer, containing (in mM): 130 NaCl, 2 KCl, 1 CaCl2), 1 MgCl2, 10 HEPES, 5 glucose; pH 7.40 and 300 mOs. After the wash, cells were loaded with the Calcium-4 dye (Molecular Device) and incubated in the dark for 60 minutes. Test compounds were prepared at 250× the test concentration in neat DMSO. Intermediate 96-well compound plates were prepared by transferring 1.2 μL of the compound into 300 μL of assay buffer. A further 3× dilution occurred when transferring 50 μL/well of the compound plate to 100 μL/well in the cell plate. Cells were incubated with test compounds and dye for 30 minutes. […] The fluorescence change was measured 180 seconds after adding the agonist.

[1] = Biodistribution studies of radiotracer in healthy female Wistar rats; assay type: in vivo; conditions: for % ID blood: blood mass assumed 7% of body mass; for SUV blood / % ID carcass / % ID cerebellum / SUV cerebellum / % ID cerebrum / SUV cortex / % ID heart / SUV hippocampus / % ID intestines / % ID kidneys / % ID liver / % ID lungs / SUV rest of cerebrum / % ID spleen + pancreas / % ID stomach / SUV striatum / % ID urine / SUV whole cerebrum: mean ± SD, n = 3; for % ID bone: calculated to estimated total bone tissue (% ID/g bone * body mass* 0.12)
Method: HPLC analysis was performed on a LaChrom Elite HPLC system (Hitachi, Armstadt, Germany) connected to a UV spectrometer set at 220 nm. For the analysis of radiolabeled compounds, the HPLC eluate, after passage through the UV detector, was led over a shielded 3-inch NaI(Tl) scintillation detector connected to a multichannel analyser (Gabi box, Raytest, Straubenhardt, Germany). The output signal was recorded and analysed using a GINA Star data acquisition system (Raytest, Straubenhardt, Germany). Radioactivity in samples of biodistribution studies, cell uptake experiments and radiometabolite analysis was quantified using an automated gamma counter equipped with a 3-inch NaI(Tl) well crystal coupled to a multichannel analyser (Wallac 2480 Wizard, Wallac, Turku, Finland). Results were corrected for background radiation, physical decay and counter dead time.
Animals were housed in individually ventilated cages in a thermoregulated (˜22° C.), humidity-controlled facility under a 12 h/12 h light/dark cycle with access to food and water ad libitum. All animal experiments were conducted according to the Belgian code of practice for the care and use of animals, after approval from the KU Leuven University Ethics Committee for Animals.
The biodistribution studies were performed in healthy female Wistar rats (body weight, 185-220 g) at 2, 30 and 60 min after tracer injection (n=3/time point). […] The animals were sacrificed by decapitation at the indicated time points. Blood and major organs were collected in tared tubes and weighed. The radioactivity in the dissected organs and blood was counted using an automated gamma counter. For calculation of total blood radioactivity, blood mass was assumed to be 7% of the body mass.

SMILES: O=C(c1cccc(C(F)(F)F)c1Cl)N1CCn2c(nnc2C(F)(F)F)C1c1ccn[nH]1 (racemic) [Example 126, (±)-(8-(1H-pyrazol-5-yl)-3-(trifluoromethyl)-5,6-dihydro-[1,2,4]triazolo[4,3-a]pyrazin-7(8H)-yl)(2-chloro-3-(trifluoromethyl)phenyl)methanone]
IC50 (rat P2X7): > 10 µM
IC50 (P2X7): 1550 nM

SMILES: C[C@H]1Cn2c(nnc2-c2ccc(F)cc2F)CN1C(=O)c1cccc(Cl)c1Cl [Example 50, (S)-(2,3-dichlorophenyl)(3-(2,4-difluorophenyl)-6-methyl-5,6-dihydro-[1,2,4]triazolo[4,3-a]pyrazin-7(8H)-yl)methanone]
IC50 (rat P2X7): 1.68 µM

SMILES: C[C@H]1Cn2c(nnc2-c2cc([18F])ccn2)CN1C(=O)c1cccc(Cl)c1Cl [[^18F]68, (S)-(2,3-dichlorophenyl)(3-(4-[^18F]fluoropyridin-2-yl)-6-methyl-5,6-dihydro-[1,2,4]triazolo[4,3-a]pyrazin-7(8H)-yl)methanone]
% ID blood ([1]; 2 min after tracer injection): 6.8 ± 0.6 % ID
SUV blood ([1]; 2 min after tracer injection): 0.97 ± 0.08
% ID blood ([1]; 30 min after tracer injection): 4.3 ± 0.3 % ID
SUV blood ([1]; 30 min after tracer injection): 0.61 ± 0.04
% ID blood ([1]; 60 min after tracer injection): 2.0 ± 0.5 % ID
SUV blood ([1]; 60 min after tracer injection): 0.29 ± 0.07
% ID bone ([1]; 2 min): 8.8 ± 0.8 % ID
% ID bone ([1]; 30 min): 44.5 ± 3.8 % ID
% ID bone ([1]; 60 min): 64.5 ± 5.9 % ID
% ID carcass ([1]; 2 min after tracer injection): 40.8 ± 0.8 % ID
% ID carcass ([1]; 30 min after tracer injection): 56.6 ± 2.8 % ID
% ID carcass ([1]; 60 min after tracer injection): 60.4 ± 2.3 % ID
% ID cerebellum ([1]; 2 min after tracer injection): 0.1 ± 0.0 % ID
SUV cerebellum ([1]; 2 min after tracer injection): 1.21 ± 0.22
% ID cerebellum ([1]; 30 min after tracer injection): 0.0 ± 0.0 % ID
SUV cerebellum ([1]; 30 min after tracer injection): 0.33 ± 0.07
% ID cerebellum ([1]; 60 min after tracer injection): 0.0 ± 0.0 % ID
SUV cerebellum ([1]; 60 min after tracer injection): 0.38 ± 0.08
% ID cerebrum ([1]; 2 min after tracer injection): 0.6 ± 0.0 % ID
% ID cerebrum ([1]; 30 min after tracer injection): 0.1 ± 0.0 % ID
% ID cerebrum ([1]; 60 min after tracer injection): 0.1 ± 0.0 % ID
SUV cortex ([1]; 2 min after tracer injection): 1.27 ± 0.13
SUV cortex ([1]; 30 min after tracer injection): 0.94 ± 0.29
SUV cortex ([1]; 60 min after tracer injection): 0.69 ± 0.17
% ID heart ([1]; 2 min after tracer injection): 0.9 ± 0.1 % ID
% ID heart ([1]; 30 min after tracer injection): 0.2 ± 0.0 % ID
% ID heart ([1]; 60 min after tracer injection): 0.1 ± 0.0 % ID
SUV hippocampus ([1]; 2 min after tracer injection): 1.11 ± 0.10
SUV hippocampus ([1]; 30 min after tracer injection): 0.23 ± 0.04
SUV hippocampus ([1]; 60 min after tracer injection): 0.19 ± 0.03
% ID intestines ([1]; 2 min after tracer injection): 10.6 ± 2.1 % ID
% ID intestines ([1]; 30 min after tracer injection): 20.9 ± 6.0 % ID
% ID intestines ([1]; 60 min after tracer injection): 11.2 ± 0.6 % ID
% ID kidneys ([1]; 2 min after tracer injection): 3.3 ± 0.5 % ID
% ID kidneys ([1]; 30 min after tracer injection): 1.1 ± 0.2 % ID
% ID kidneys ([1]; 60 min after tracer injection): 0.9 ± 0.1 % ID
% ID liver ([1]; 2 min after tracer injection): 34.6 ± 2.4 % ID
% ID liver ([1]; 30 min after tracer injection): 7.5 ± 0.6 % ID
% ID liver ([1]; 60 min after tracer injection): 3.61 ± 0.3 % ID
% ID lungs ([1]; 2 min after tracer injection): 1.6 ± 0.1 % ID
% ID lungs ([1]; 30 min after tracer injection): 0.7 ± 0.1 % ID
% ID lungs ([1]; 60 min after tracer injection): 0.6 ± 0.2 % ID
SUV rest of cerebrum ([1]; 2 min after tracer injection): 1.20 ± 0.11
SUV rest of cerebrum ([1]; 30 min after tracer injection): 0.31 ± 0.06
SUV rest of cerebrum ([1]; 60 min after tracer injection): 0.25 ± 0.04
% ID spleen + pancreas ([1]; 2 min after tracer injection): 1.3 ± 0.2 % ID
% ID spleen + pancreas ([1]; 30 min after tracer injection): 0.3 ± 0.1 % ID
% ID spleen + pancreas ([1]; 60 min after tracer injection): 0.2 ± 0.0 % ID
% ID stomach ([1]; 2 min after tracer injection): 1.5 ± 0.5 % ID
% ID stomach ([1]; 30 min after tracer injection): 1.6 ± 0.9 % ID
% ID stomach ([1]; 60 min after tracer injection): 10.7 ± 3.3 % ID
SUV striatum ([1]; 2 min after tracer injection): 1.19 ± 0.13
SUV striatum ([1]; 30 min after tracer injection): 0.24 ± 0.05
SUV striatum ([1]; 60 min after tracer injection): 0.19 ± 0.03
% ID urine ([1]; 2 min after tracer injection): 0.1 ± 0.0 % ID
% ID urine ([1]; 30 min after tracer injection): 8.4 ± 1.8 % ID
% ID urine ([1]; 60 min after tracer injection): 8.4 ± 1.8 % ID
SUV whole cerebrum ([1]; 2 min after tracer injection): 1.20 ± 0.11
SUV whole cerebrum ([1]; 30 min after tracer injection): 0.31 ± 0.06
SUV whole cerebrum ([1]; 60 min after tracer injection): 0.25 ± 0.04

Further compounds by falling IC50 (rat P2X7), results first:

IC50 (rat P2X7): 1.21 µM
SMILES: CC1c2nnc(-c3ccccn3)n2CCN1C(=O)c1cccc(Cl)c1Cl (centres unmarked) [Example 1, (2,3-dichlorophenyl)(8-methyl-3-(pyridin-2-yl)-5,6-dihydro-[1,2,4]triazolo[4,3-a]pyrazin-7(8H)-yl)methanone]

IC50 (rat P2X7): 0.0101 µM
SMILES: C[C@H]1Cn2c(nnc2-c2ncc(F)cn2)CN1C(=O)c1cccc(C(F)(F)F)c1Cl [Example 74]

Reference: US12338243B2, “P2X7 modulators” (JANSSEN PHARMACEUTICA NV, priority 2014, dated 2025)
